Data: patent US20250236840A1, “SELECTIVE EXPANSION OF DIFFERENT SUBPOPULATIONS OF T CELLS BY THE ALTERATION OF CELL SURFACING SIGNALS AND SIGNAL RATIO” (LIFE TECHNOLOGIES AS, priority 2015, published 2025)

Test system: T cells
Assay: Effect of AHR agonist on Th17 polarization (intracellular IL-17 after PMA/Ionomycin)
Assay type: cell-based, human
Protocol: FIG. 8. T cells were activated with CD3/CD5 (upper) or CD3/ICOS (lower) figure and expanded in presence of standard Th17-polarizing cytokines/antibodies (cytokines package), or with 100 nM FICZ and IL-1B and IL-6. At day 13 cultures were stimulated with PMA/Ionomycin for 4-5 hours before assessment of IL-17A and IL-17F expression. Cytograms show intracellular expression of the cytokines.
Protocol permutation: T cells were activated with DYNABEADS® CD3/CD5, DYNABEADS® CD3/ICOS, or DYNABEADS® CD3/CD28 with equal signal strength and stoichiometry. Th17 polarization was facilitated by addition of i) cytokines (TGF-β, IL-23, IL-6, IL-1B) and αIL-4/α-IFN-γ neutralizing antibodies or ii) the AHR agonist FICZ plus IL-6, IL-1βa. Th17 polarization was assessed by intracellular staining of IL-17 and IFN-γ following PMA/Ionomycin activation of polarized T cells (FIG. 8).

## O=Cc1c2c(cc3c1=Nc1ccccc1-3)=Nc1ccccc1-2 [FICZ, 6-formylindolo [3,2-b]carbazole]
100 nM FICZ plus IL-1β and IL-6, CD3/CD5 beads, day 13
  Activity on T cells costimulated through CD5: promising activity
100 nM FICZ plus IL-1β and IL-6, CD3/ICOS beads, day 13
  Activity on T cells costimulated through ICOS: not
FICZ, IL-1β and IL-6 protocol
  IL-17 producing cells compared to standard polarizing conditions: fewer
